Test results reported in US5045566A, “Novel imidate insecticides” (ICI Americas Inc., priority 1989, dated 1991).

Tests used:
Format in all cases: in vivo
[1] = system: Black Bean Aphid [Aphis fabae (Scop.)]; assay: Black bean aphid spray test on nasturtium (BBA), 48 hours; details: percent of test compound in sprayed solution
Procedure: The compounds in Tables 1 and 2 above were tested for insecticidal activity using the following testing procedures. LC50 values, based on the results of these tests and calculated according to dosage-mortality curves, are expressed in Table 3.
Black Bean Aphid [Aphis fabae (Scop.)]:
Nasturtium plants (Tropaeolum sp.) approximately 5 cm tall, were transplanted into sandy loam soil in small cups and infested with 25-50 black bean aphids of mixed ages. Twenty-four hours later they were sprayed to the point of runoff with 50-50 acetone-water solutions of the test compounds. Treated plants were held in the greenhouse and mortality was recorded after 48 hours. Test concentrations ranged from 0.05% downward. The LC-50 value is expressed below in Table 3 under the heading "BBA" in terms of percent of the test compound in the sprayed solution.

[2] = system: Housefly [Musca domestica]; assay: Housefly contact mortality in dishes (HF), 48 hours; details: μg of test compound per 25 female flies
Method in brief: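 LC50, as μg compound per 25 female flies, comes from dosage-mortality curves with doses from 100 μg downward. Residues were made by evaporating acetone plus 0.01% peanut oil in dishes, onto which 1-2-day-old females were caged; deaths were counted after 48 hours.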

[3] = system: Cabbage Looper [Trichoplusia ni (Hubner)]; assay: Cabbage looper leaf dip (CL), 3-5 days; details: percent in solution, second-instar larvae
Method in brief: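 Squash cotyledons dipped in test solution (acetone-water 50-50, ≤0.1%), dried, offered to 5 second-instar larvae; mortality after 3-5 days gives LC50.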

[4] = system: Tobacco Budworm [Heliothis virescens (Fabricius)] eggs; assay: Tobacco budworm eggs (TBW-E); details: percent in solution; 2-day old eggs
Method in brief: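 Step 1: dip 2-day old egg patches in acetone test solutions (top concentration 0.1%). Step 2: hold in dishes with rearing medium at 78° F. Step 3: record mortality after control hatch and feeding.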

| Structure (SMILES) | LC50 BBA [1] [%] | LC50 HF [2] [µg] | LC50 CL [3] [%] | LC50 TBW E (eggs) [4] [%] |
| --- | --- | --- | --- | --- |
| CCOc1ccc(N=C(OCc2cccc(Oc3ccccc3)c2)C(C)(C)C)cc1 [Compound 164] | > 0.05 | > 100 | 0.005 | > 0.1 |
| Clc1cccc(N=C(OCc2cccc(Oc3ccccc3)c2)C2CC2)c1 [Compound 24] | 0.01 | 25 | 0.005 | 0.1 |
| CC(C)C(=Nc1ccc(C#N)c(F)c1)OCc1cccc(Oc2ccc(F)cc2)c1 [Compound 222] | 0.01 | 32 | 0.0015 | > 0.1 |
| CC(C)C(=Nc1cc(F)c(F)cc1F)OCc1cccc(Oc2ccccc2)c1 [Compound 58] | 0.003 | 16 | 0.002 | 0.06 |
| CC(C)C(=Nc1ccc(F)cc1)OCc1cccc(Oc2ccc(F)cc2F)c1 [Compound 206] | 0.03 | 50 | 0.0017 | > 0.1 |
| Cc1ccc(N=C(OCc2cccc(Oc3ccccc3)c2)C(C)C)cc1C [Compound 158] | 0.0015 | 9 | 0.003 | 0.1 |
| CC(C)C(=Nc1ccc2c(c1)OCO2)OCc1cc(Oc2ccc(F)cc2)ccc1Cl [Compound 274] | > 0.05 | > 100 | 0.1 | > 0.1 |
| COCc1c(F)c(F)c(COC(=Nc2ccc3c(c2)OCO3)C(C)C)c(F)c1F [Compound 501] | > 0.05 | 20 | 0.00045 | > 0.1 |
| Cc1cc(N=C(OCc2cccc(Oc3ccccc3)c2)C(C)C)ccc1F [Compound 87] | 0.001 | 5 | 0.004 | 0.03 |
| CC(C)C(=Nc1ccc(F)c(Cl)c1)OCc1cc(F)cc(Oc2ccc(F)cc2)c1 [Compound 327] | > 0.05 | > 100 | 0.005 | > 0.1 |
| Cc1cc(N=C(OCc2cccc(Oc3ccccc3)c2)C(C)C)ccc1Br [Compound 127] | 0.001 | 58 | 0.01 | 0.04 |
| CC(C)C(=Nc1ccc(F)c(Cl)c1)OCc1ccc(Cl)c(Oc2ccc(F)cc2)c1 [Compound 448] | > 0.05 | 16 | 0.003 | 0.03 |
| CC(C)(Cl)C(=Nc1ccc(Cl)c2ccccc12)OCc1cccc(Oc2ccccc2)c1 [Compound 111] | 0.003 | > 100 | 0.1 | > 0.1 |
| CC(C)C(=Nc1c(F)c(F)c(F)c(F)c1F)OCc1cccc(Oc2ccc(F)cc2F)c1 [Compound 232] | > 0.05 | > 100 | 0.004 | > 0.1 |
| CC(C)C(=Nc1ccc(F)cc1)OCc1cccc(Oc2ccc(F)c(F)c2)c1 [Compound 265] | > 0.05 | 10 | 0.00025 | 0.07 |
| Cc1cccc(N=C(OCc2cccc(Oc3ccccc3)c2)C(C)C)c1C [Compound 249] | 0.0003 | 36 | 0.0025 | 0.035 |
| CC(C)C(=Nc1ccc(C(C)(C)C)cc1)OCc1cccc(Oc2ccc(F)cc2)c1 [Compound 235] | 0.01 | > 100 | 0.004 | > 0.1 |

| Structure (SMILES) | LC50 BBA [1] [%] | LC50 HF [2] [µg] | LC50 CL [3] [%] | LC50 TBW E (eggs) [4] [%] |
| --- | --- | --- | --- | --- |
| CC(C)C(=Nc1cc(F)ccc1F)OCc1cccc(Oc2ccccc2)c1 [Compound 56] | 0.03 | 91 | 0.01 | > 0.05 |
| Cc1ccc(N=C(OCc2cccc(Oc3ccccc3)c2)C(C)C)c(Cl)c1 [Compound 94] | 0.001 | 44 | 0.0045 | 0.075 |
| CC(C)C(=Nc1ccc(F)c(Cl)c1)OCc1cccc(Oc2ccc(C(F)(F)F)cc2)c1 [Compound 247] | > 0.05 | > 100 | 0.009 | > 0.1 |
| CC(C)(C)C(=Nc1ccc(Br)c(Cl)c1)OCc1cccc(Oc2ccccc2)c1 [Compound 106] | 0.01 | > 100 | 0.014 | > 0.1 |
| Cc1cccc(N=C(OCc2cccc(Oc3ccccc3)c2)C(C)C)c1C [Compound 148] | 0.0003 | 18 | 0.0025 | 0.025 |
| CC(C)C(=Nc1ccc(F)cc1)OCc1cccc(Oc2cccc(Cl)c2)c1 [Compound 205] | 0.03 | 50 | 0.004 | > 0.1 |
| CC(C)C(=Nc1c(Cl)cc(Cl)cc1Cl)OCc1cccc(Oc2ccccc2)c1 [Compound 19] | 0.05 | > 100 | < 0.1 | > 0.1 |
| CC(C)c1ccc(N=C(OCc2cccc(Oc3ccccc3)c2)C(C)(C)C)cc1 [Compound 165] | > 0.05 | > 100 | 0.007 | > 0.1 |
| CC(C)C(=Nc1cc(C(F)(F)F)cc(C(F)(F)F)c1)OCc1cccc(Oc2ccccc2)c1 [Compound 78] | 0.03 | > 100 | 0.0025 | > 0.1 |
| CCSc1ccc(N=C(OCc2cccc(Oc3ccccc3)c2)C(C)C)cc1Cl [Compound 103] | 0.001 | > 100 | 0.015 | > 0.1 |
| CC(C)C(=Nc1cc(C(F)(F)F)ccc1F)OCc1cccc(Oc2ccccc2)c1 [Compound 84] | 0.03 | 93 | 0.006 | 0.1 |
| CC(C)C(=Nc1cccc(C(F)(F)F)c1)OCc1cccc(Oc2ccncc2)c1 [Compound 469] | > 0.05 | 40 | 0.02 | > 0.1 |
| CC(C)C(=Nc1ccc(Br)c(Br)c1)OCc1cccc(Oc2ccccc2)c1 [Compound 252] | 0.002 | 34 | 0.0035 | 0.04 |
| CC(C)C(=Nc1ccc(F)c(Cl)c1)OCc1cccc(Oc2ccc(I)cc2)c1 [Compound 447] | > 0.05 | 33 | 0.0009 | > 0.1 |
| COc1ccc(C)cc1N=C(OCc1cccc(Oc2ccccc2)c1)C(C)C [Compound 150] | 0.03 | 89 | 0.01 | > 0.1 |
| CCOC(=O)c1ccc(N=C(OCc2cccc(Oc3ccccc3)c2)C(C)C)cc1Cl [Compound 104] | 0.003 | > 100 | 0.004 | > 0.1 |
